Laboratory results: ChEMBL document CHEMBL3860042, “Nucleoside Phosphate and Phosphonate Prodrug Clinical Candidates” (J Med Chem, 2016)

Legend:
Mus musculus = species: Mus musculus; experiment: Toxicity in mouse assessed as body weight loss; assay type: organism-based; conditions: in vivo
[1] = Toxicity in patients with solid malignancies assessed as incidence of anemia; conditions: human, in vivo
[2] = Toxicity in patients with solid malignancies assessed as incidence of fatigue; conditions: human, in vivo
[3] = Toxicity in patients with solid malignancies assessed as incidence of transaminitis; conditions: human, in vivo
[4] = Toxicity in patients with solid malignancies assessed as incidence of thrombocytopenia; conditions: human, in vivo
Ebolavirus [5] = experiment: Antiviral activity against Ebolavirus assessed as reduction in viral replication; assay type: functional; conditions: Orthoebolavirus
[6] = Tmax in human at 0.025 to 2 mg/kg dosed as single and multiple doses; assay type: ADME, organism-based; conditions: in vivo
[7] = Half life in human at 0.025 mg/kg dosed as single and multiple doses; assay type: ADME, organism-based; conditions: in vivo
[8] = Half life in human at 1.5 mg/kg dosed as single and multiple doses; assay type: ADME, organism-based; conditions: in vivo
[9] = Half life in rhesus monkey at 10 mg/kg, iv; assay type: ADME, organism-based, Macaca mulatta; conditions: in vivo
[10] = Drug metabolism in PBMC (unknown origin) assessed as half life for active triphosphate formation; assay type: ADME, cell-based
Ebolavirus [11] = experiment: Antiviral activity against Ebolavirus infected in PBMC (unknown origin) assessed as reduction in viral replication after 24 hrs; assay type: functional
Ebolavirus [12] = experiment: Antiviral activity against Ebolavirus infected in rhesus monkey assessed as protection against viral disease administered intravenously as once daily regimen; assay type: functional

Compound `C[C@H](NP(=O)(OC[C@H]1O[C@@H](n2ccc(N)nc2=O)C(F)(F)[C@@H]1O)Oc1ccccc1)C(=O)OCc1ccccc1` (some centres undefined) [FOSGEMCITABINE PALABENAMIDE] has an Activity (Mus musculus) of under 2%, an Activity [1] of 67% and an Activity [2] of 67%. The Activity [3] was 64% and the Activity [4] was 53%.

In the case of `N#C[C@@]1(c2ccc3c(N)ncnn23)O[C@H](CO)[C@@H](O)[C@H]1O` [GS-441524], the EC50 (Ebolavirus [5]) is reported as 770 to 20000 nM.

With `CCCCCCCCCCCCCCCCOCCCOP(=O)(O)CO[C@H](CO)Cn1ccc(N)nc1=O` [BRINCIDOFOVIR] the Tmax [6] was 7 to 15 h, the half-life [7] was 6.15 h and the half-life [8] was 32.7 h.

`CCC(CC)OC(=O)[C@H](C)N[P@@](=O)(OC[C@H]1O[C@@](C#N)(c2ccc3c(N)ncnn23)[C@H](O)[C@@H]1O)Oc1ccccc1` gave an EC50 (Ebolavirus [5]) of 60 to 140 nM, a half-life [9] of 0.39 h and a t1/2 [10] of 14 h. For the same compound, the “inhibition (INH)” value (Ebolavirus [11]) was over 50% and the Activity (Ebolavirus [12]) was 100%.
